# Assay results: patent US12213990B2, “A3 adenosine receptor ligand for use for achieving a fat loss effect” (CAN-FITE BIOPHARMA LTD., priority 2019, dated 2025)
# How the values were obtained:
# 3T3-L1 adipocytes [1] = assay: 3H-thymidine incorporation assay, proliferation of 3T3-L1 adipocytes; format: cell-based; conditions: 3T3-L1 cells
# Description: 3T3-L1 pre-adipocytes were purchased from American Type Culture Collection (ATCC; Manassas, VA, USA). The pre-adipocytes were maintained in Dulbecco's modified Eagle's medium (DMEM; Hyclone, South Logan, UT, USA), and supplemented with 10% newborn calf serum (Hyclone) and antibiotics (Hyclone) at 37° C. in 5% CO2. To induce adipocyte differentiation, the pre-adipocytes were plated at 24-well plates. After confluence, the medium was changed and 10 μg/ml insulin, 1 μM DEX and 0.5 mM IBMX was added. Two days later the media were changed to the basal medium supplemented with 10% FBS and 10 μg/ml insulin. The media were replaced every 2 days for a period of 8-14 days. To evaluate cell proliferation, ^3H-thymidine incorporation assay was used. The 3T3-L1 cells (5,000 cells/well) were incubated with 5 or 10 nM CF102 96-well plate for 48 hours. Each well was pulsed with […] ^3H-thymidine for the last 24 hours. Cells were harvested and the ^3H-thymidine uptake was determined in an LKB liquid scintillation counter (LKB, Piscataway, NJ, USA).
# 3T3-L1 adipocytes [2] = assay: Oil-Red-O staining, accumulation of lipid droplets in 3T3-L1 adipocytes; format: cell-based; conditions: 5 nM CF102, 48 h, p=0.01
# Description: Pre-adipocytes were incubated in a differentiated medium (DMEM high glucose+10% FBS) containing 10 μg/ml insulin, 1 μM DEX and 0.5 mM IBMX and treated with 5 nM CF102 for 48 h to evaluate its potential anti-adipogenic effect. The accumulation of lipid droplets was evaluated by staining with Oil-Red-O. Briefly, cells were washed with PBS, incubated with 3.7% HCHO for 1 hr and then, incubated with Oil-Red-O solution for 45 min. Cells were washed very well to remove the excess of Oil-Red-O, visualized and photographed under an Olympus microscope with a Leica camera. For the quantification of lipid accumulation, cells were dissolved in isopropanol and the optical density was read on a Dynatech Corp. Microelisa reader (Chantilly, VA) at 595 nm. The degree accumulation of lipid droplets was proportional to the optical density.
# [3] = Body weight in diet-induced obesity mouse model (HFD vs. regular diet); format: in vivo, C57BL/6J mice; conditions: HFD 12 weeks, then 100 μg/Kg daily oral for 4 weeks
# From the text: Because complications from obesity such as diabetes and cardiovascular disease usually require decades, surrogate animal models are important for studying the molecular aspects of obesity and its pathophysiological effects. One of these models that are gaining increasing attention is the diet-induced obesity model in mouse. The present protocol is designed to evaluate effects of CF102 in an in vivo mouse model of Diet-Induced obesity. The mice utilized are C57BL/6J males, 4-6 weeks old (The Jackson Laboratory, stock 000664). 60 kcal % fat diet (Research Diets, D12492i) Group I-II: Naïve animals (n=20) were fed with a regular diet, served as a control group and were defined as ‘Lean Diet’ After 12 weeks, mice were divided into 2 groups (n=10 per group), the first was treated with a daily oral administration of CF102 (Can-Fite BioPharma, Cat #A14402-10; 100 μg/Kg) for 4 weeks and the second with vehicle only. Group III-IV—Naïve mice (n=20) were fed with HFD for 12 weeks. After 12 weeks, mice were divided into 2 groups (n=10 per group), the first was treated with daily oral administration of CF102 (Can-Fite BioPharma, Cat #A14402-10; 100 μg/Kg) for 4 weeks and the second with vehicle only.
# [4] = Body weight in STZ-induced diabetic rat model; format: in vivo, Sprague Dawley rats; conditions: STZ diabetic rats, 100 μg/kg orally twice daily for five days
# Description: Diabetes is one of the complications of obesity. Therefore, the effect of an A3AR ligand on body weight in a diabetic model was also evaluated.
# Sprague Dawley male rats (8-10 week old) were administered IP with Streptozotocin (STZ) at a dose level of 60 mg/kg in citrate buffer to create a diabetic model. Only animals with blood glucose level higher than 250 mg/dL were included in the study. CF602, an allosteric A3AR ligand was administered orally twice daily for five days at a dose of 100 μg/kg. Body weight was monitored after 5 days.
Compound,"reduction of adipocyte proliferation compared to the control measurement (3T3-L1 adipocytes [1]; 5 nM CF102, 48 hours)","reduction of adipocyte proliferation compared to the control measurement (3T3-L1 adipocytes [1]; 10 nM CF102, 48 hours)",lipid accumulation (OD value at 595 nm) vs. vehicle treated control (3T3-L1 adipocytes [2]),"weight loss, mice under HFD [3]",weight change from baseline (body weight) [4]
"CNC(=O)[C@H]1O[C@@H](n2cnc3c(NCc4cccc(I)c4)nc(Cl)nc32)[C@H](O)[C@@H]1O [CF102, 2-chloro-N^6-(3-iodobenzyl)-adenosine-5′-N-methyluronamide]",more than 20%,> 40%,inhibition in lipid accumulation,significant (p<0.001) weight loss effect,–
"Clc1ccc(Nc2nc3ccccc3c3[nH]c(C4CCCCC4)nc23)cc1Cl [CF602, N-(3,4-Dichloro-phenyl)-2-cyclohexyl-1H-imidazo[4,5-c]quinolin-4-amine]",–,–,–,–,significant (p<0.03) decrease in body weight
